Values joined by “and” are separate entries in the source; they are usually repeats but may differ in a detail not shown here. Equal entries are not always repeated. Where two headings read alike, the source gives them in different places.
Columns and labels:
[1] = Pharmacokinetic test in rats, gavage administration; assay type: in vivo, SD rats; settings: for bioavailability: read-out: F % (absolute bioavailability), Mean ± SD;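 for AUC0-t (area under the plasma concentration-time curve from zero to the last sampling time): plasma area under the curve AUC0-1 in μg·h/L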
Procedure: The preferred compound of the present disclosure was assessed in rats for its pharmacokinetic profile.
SD rats, male and female, weighing 150 to 250 g
Mobile phase: 10 mM ammonium formate aqueous solution:methanol=15:85
The ionization source was electrospray ionization source. The detection mode was positive mode. Multiple reaction monitoring (MRM) was used as the scanning mode. The ion reaction for the quantitative analysis was the following: m/z was 305.2\150.0 for XX, and 256.1\167.1 for diphenhydramine (the internal standard).
XX or YY was orally administered with single dose of 20 mg/kg to six SD rats, one half of which were male and the other half was female. XX or YY was dissolved in 10% hydroxypropyl-β-cyclodextrin. […]
After the blood collection, the tubes were immediately gently turned upside down at least five times to ensure sufficient mixing, and placed on ice. Heparin was added for anticoagulation. The samples were centrifuged at 8000 rpm for 5 min to separate serum from erythrocyte. The serum was transferred with a pipettor to 2 mL polypropylene (PP) tubes, which were marked with the name of the compound and the time points, and stored in a refrigerator at −40° C. before LC-MS analysis. Samples with high concentrations were diluted with rat blank plasma.
2.5 μL of Meth-H2O and 5 μL of the internal standard solution (20 ng/mL, IS) were added to 50 μL of the plasma. Subsequently, 150 μL of methanol was added to the mixture to precipitate protein and the samples were then centrifuged at 13000 rpm for 5 min. The upper organic phase was taken out, filtrated with a 0.22 μM microporous membrane, and 2 μL of the sample was injected for the LC-MS analysis.

Male ICR mice = test: Mice swimming test; assay type: in vivo
Source text: The following method is used for testing the antidepression effect of the compound of the present application. ICR mice or SD rats, gavaged for two successive weeks, were subjected to mice swimming test, mice tail suspension test and rats swimming test. See below for details of the tests and results.
Male ICR mice weighing 18 g to 20 g were used. They were fed on sterilized standard feed.
The compound administered in the test was 1-{2-[2,4-bis(trideuteriomethyl)phenylsulfanyl]phenyl}piperazine hydrobromic acid salt (XX for short). Vortioxetine (YY for short) was used as a control sample. Venlafaxine HCl (from Wyeth, USA) was used as a positive control.
Vortioxetine (15 mg) was combined with 10% hydroxypropyl-β-cyclodextrin to form a solution of 100 mL and was administered at daily dose of 3 mg/kg. 1-{2-[2,4-bis(trideuteriomethyl)phenylsulfanyl]phenyl}piperazine hydrobromic acid salt (15 mg and 7.5 mg) was combined with 10% hydroxypropyl-β-cyclodextrin to form two solutions of 100 mL and was administered at daily doses of 3 mg/kg and 1.5 mg/kg, respectively. Venlafaxine HCl (75 mg) was combined with 0.5% CMC-Na to form a solution of 100 mL and was administered at daily dose of […].
A recording and analysis system for small-animal behavior (Noldus) was used.
All the eighty mice were subjected to prescreening one day before the administration. The mice, fasted for 4 hours were put in a round glass tank (ø 14 cm×h 20 cm, with water of 10 cm depth and at a temperature of 25° C.) to swim. […] The whole swimming course was recorded by the video and the data were collected and analyzed automatically by Noldus software.
The forty qualified mice were divided into 4 groups, each of which had 10 mice, according to the Excel random grouping.
The medicaments were administered to each group by gavage with the amount of 0.2 ml per 10 g of body weight, once a day for 14 successive days. One hour later after the last oral administration, the mice were allowed to swim for 6 min. The video recorded the whole swimming course, and the Noldus software automatically collected and analyzed the data.
The data was given as “average±standard deviation” (x±s). One-way analysis of variance (one-way ANOVA) was used for data difference statistics. Differences among the groups were determined by P<0.05.

[2] = rats, oral 20 mg/kg, individual rats 1-6, 20 mg/kg

MRT inf ([1]; both sexes, SD, rat, plasma, po, 20 mg/kg, rats, oral 20 mg/kg, individual rats 1-6, read-out: MRT0-∞): 4.49 h
half-life ([1]; both sexes, SD, rat, plasma, po, 20 mg/kg, rats, oral 20 mg/kg, individual rats 1-6, read-out: t1/2 (converted)): 3.05 h
AUC(0-t) ([1]; both sexes, SD, rat, plasma, po, 20 mg/kg, rats, oral 20 mg/kg, n = 6, read-out: AUC0-1, Mean ± SD): 489 ± 180 ng·h/mL
AUC(0-inf) ([1]; both sexes, SD, rat, plasma, po, 20 mg/kg, rats, oral 20 mg/kg, n = 6, read-out: AUC0-∞, Mean ± SD): 491 ± 181 ng·h/mL
Cmax ([1]; both sexes, SD, rat, plasma, po, 20 mg/kg, rats, oral 20 mg/kg, n = 6, read-out: Cmax, Mean ± SD): 99.6 ± 42.6 ng/mL
MRT inf ([1]; both sexes, SD, rat, plasma, po, 20 mg/kg, rats, oral 20 mg/kg, n = 6, read-out: MRT0-∞, Mean ± SD): 4.75 ± 0.31 h
half-life ([1]; both sexes, SD, rat, plasma, po, 20 mg/kg, rats, oral 20 mg/kg, n = 6, read-out: t1/2, Mean ± SD (converted)): 2.96 ± 0.43 h
concentration at 10 min ([1]; both sexes, Sprague-Dawley, rat, plasma, oral, 20 mg/kg, 20 mg/kg oral, 10 min (Table 5: 0.167 h), mean of 6 rats, read-out: Concentrations in Plasma of Rats after Oral Administration, Mean ± SD): 19 ± 12.2 ng/mL
concentration at 0.5 h ([1]; both sexes, Sprague-Dawley, rat, plasma, oral, 20 mg/kg, 20 mg/kg oral, 0.5 h, mean of 6 rats, read-out: Concentrations in Plasma of Rats after Oral Administration, Mean ± SD): 54.9 ± 16.8 ng/mL
concentration at 1 h ([1]; both sexes, Sprague-Dawley, rat, plasma, oral, 20 mg/kg, 20 mg/kg oral, 1 h, mean of 6 rats, read-out: Concentrations in Plasma of Rats after Oral Administration, Mean ± SD): 82.6 ± 23.6 ng/mL
concentration at 1.5 h ([1]; both sexes, Sprague-Dawley, rat, plasma, oral, 20 mg/kg, 20 mg/kg oral, 1.5 h, mean of 6 rats, read-out: Concentrations in Plasma of Rats after Oral Administration, Mean ± SD): 89.9 ± 33.7 ng/mL
concentration at 2 h ([1]; both sexes, Sprague-Dawley, rat, plasma, oral, 20 mg/kg, 20 mg/kg oral, 2 h, mean of 6 rats, read-out: Concentrations in Plasma of Rats after Oral Administration, Mean ± SD): 92.1 ± 45.7 ng/mL
concentration at 3 h ([1]; both sexes, Sprague-Dawley, rat, plasma, oral, 20 mg/kg, 20 mg/kg oral, 3 h, mean of 6 rats, read-out: Concentrations in Plasma of Rats after Oral Administration, Mean ± SD): 59.9 ± 30.7 ng/mL
concentration at 4 h ([1]; both sexes, Sprague-Dawley, rat, plasma, oral, 20 mg/kg, 20 mg/kg oral, 4 h, mean of 6 rats, read-out: Concentrations in Plasma of Rats after Oral Administration, Mean ± SD): 53.4 ± 21.6 ng/mL
concentration at 6 h ([1]; both sexes, Sprague-Dawley, rat, plasma, oral, 20 mg/kg, 20 mg/kg oral, 6 h, mean of 6 rats, read-out: Concentrations in Plasma of Rats after Oral Administration, Mean ± SD): 36.4 ± 11.7 ng/mL
concentration at 8 h ([1]; both sexes, Sprague-Dawley, rat, plasma, oral, 20 mg/kg, 20 mg/kg oral, 8 h, mean of 6 rats, read-out: Concentrations in Plasma of Rats after Oral Administration, Mean ± SD): 18.1 ± 5.3 ng/mL
concentration at 10 h ([1]; both sexes, Sprague-Dawley, rat, plasma, oral, 20 mg/kg, 20 mg/kg oral, 10 h, mean of 6 rats, read-out: Concentrations in Plasma of Rats after Oral Administration, Mean ± SD): 9.79 ± 2.62 ng/mL
concentration at 12 h ([1]; both sexes, Sprague-Dawley, rat, plasma, oral, 20 mg/kg, 20 mg/kg oral, 12 h, mean of 6 rats, read-out: Concentrations in Plasma of Rats after Oral Administration, Mean ± SD): 5.12 ± 1.67 ng/mL
concentration at 14 h ([1]; both sexes, Sprague-Dawley, rat, plasma, oral, 20 mg/kg, 20 mg/kg oral, 14 h, mean of 6 rats, read-out: Concentrations in Plasma of Rats after Oral Administration, Mean ± SD): 4.08 ± 1.66 ng/mL
concentration at 24 h ([1]; both sexes, Sprague-Dawley, rat, plasma, oral, 20 mg/kg, 20 mg/kg oral, 24 h, mean of 6 rats, read-out: Concentrations in Plasma of Rats after Oral Administration, Mean ± SD): 0.64 ± 0.32 ng/mL
bioavailability ([1]; both sexes, Sprague-Dawley, rat, plasma, oral, 20 mg/kg, rats, oral 20 mg/kg vs iv 2 mg/kg, n = 6): 7.51 ± 2.77%
AUC(0-t) ([1]; both sexes, Sprague-Dawley, rat, plasma, po, 20 mg/kg, gavage administration of 20 mg/kg, rats, read-out: AUC0-t in the rats' plasma): 489 ± 180 ng·h/mL
bioavailability ([1]; both sexes, Sprague-Dawley, rat, plasma, po, 20 mg/kg, rats, oral 20 mg/kg vs iv 2 mg/kg, n = 6): 7.51 ± 2.77%
SMILES: Cc1ccc(Sc2ccccc2N2CCNCC2)c(C)c1 [YY, 1-[2-(2,4-dimethyl-phenylsulfanyl)-phenyl]piperazine]
Concentrations in Plasma of Rats after Oral Administration ([1]; 20 mg/kg oral, 10 min (Table 5: 0.167 h) after administration, individual rats 1-6): 17.9 ng/mL and 9.42 ng/mL and 28.1 ng/mL and 14.3 ng/mL and 38.4 ng/mL and 6.11 ng/mL
Concentrations in Plasma of Rats after Oral Administration ([1]; 20 mg/kg oral, 0.5 h, individual rats 1-6): 86.5 ng/mL and 38.1 ng/mL and 52.3 ng/mL and 49.7 ng/mL
Concentrations in Plasma of Rats after Oral Administration ([1]; 20 mg/kg oral, 1 h, individual rats 1-6): 123 ng/mL and 65.5 ng/mL and 77.4 ng/mL and 81.1 ng/mL and 93.2 ng/mL and 55.6 ng/mL
Concentrations in Plasma of Rats after Oral Administration ([1]; 20 mg/kg oral, 1.5 h, individual rats 1-6): 154 ng/mL and 85.2 ng/mL and 82.9 ng/mL and 89.2 ng/mL and 73.2 ng/mL and 54.9 ng/mL
Concentrations in Plasma of Rats after Oral Administration ([1]; 20 mg/kg oral, 2 h, individual rats 1-6): 182 ng/mL and 68.3 ng/mL and 91.8 ng/mL and 81.9 ng/mL and 72 ng/mL and 56.4 ng/mL
Concentrations in Plasma of Rats after Oral Administration ([1]; 20 mg/kg oral, 3 h, individual rats 1-6): 120 ng/mL and 48.2 ng/mL and 58.3 ng/mL and 55.9 ng/mL and 42.9 ng/mL and 34.2 ng/mL
Concentrations in Plasma of Rats after Oral Administration ([1]; 20 mg/kg oral, 4 h, individual rats 1-6): 93.6 ng/mL and 46.9 ng/mL and 52.9 ng/mL and 55.2 ng/mL and 42.1 ng/mL and 29.9 ng/mL
Concentrations in Plasma of Rats after Oral Administration ([1]; 20 mg/kg oral, 6 h, individual rats 1-6): 57.4 ng/mL and 37.7 ng/mL and 36.7 ng/mL and 33.5 ng/mL and 30.5 ng/mL and 22.4 ng/mL
Concentrations in Plasma of Rats after Oral Administration ([1]; 20 mg/kg oral, 8 h, individual rats 1-6): 27.5 ng/mL and 16.7 ng/mL and 17.7 ng/mL and 16.3 ng/mL and 18.8 ng/mL and 11.3 ng/mL
Concentrations in Plasma of Rats after Oral Administration ([1]; 20 mg/kg oral, 10 h, individual rats 1-6): 14.5 ng/mL and 8.39 ng/mL and 10.9 ng/mL and 8.32 ng/mL and 9.4 ng/mL and 7.24 ng/mL
Concentrations in Plasma of Rats after Oral Administration ([1]; 20 mg/kg oral, 12 h, individual rats 1-6): 7.3 ng/mL and 4.87 ng/mL and 4.29 ng/mL and 7.01 ng/mL and 4.1 ng/mL and 3.17 ng/mL
Concentrations in Plasma of Rats after Oral Administration ([1]; 20 mg/kg oral, 14 h, individual rats 1-6): 7.19 ng/mL and 2.5 ng/mL and 3.69 ng/mL and 4.35 ng/mL and 3.79 ng/mL and 2.95 ng/mL
Concentrations in Plasma of Rats after Oral Administration ([1]; 20 mg/kg oral, 24 h, individual rats 1-6): 0.728 ng/mL and 0.431 ng/mL and 0.716 ng/mL and 0.374 ng/mL and 0.394 ng/mL and 1.21 ng/mL
F % ([1]; rats, oral 20 mg/kg vs iv 2 mg/kg, individual rats 1-6): 12.83% and 6.36% and 7.40% and 7.17% and 6.55% and 4.75%
AUC0-t (area under the plasma concentration-time curve from zero to the last sampling time) [1, 2]: 836.1 ng·h/mL and 415.8 ng·h/mL and 480.4 ng·h/mL and 467.8 ng·h/mL and 427.0 ng·h/mL and 309.2 ng·h/mL
AUC0-∞ [1, 2]: 839.3 ng·h/mL and 416.2 ng·h/mL and 484 ng·h/mL and 469.3 ng·h/mL and 428.7 ng·h/mL and 310.6 ng·h/mL
Cmax [1, 2]: 182.0 ng/mL and 85.2 ng/mL and 91.8 ng/mL and 89.2 ng/mL and 93.2 ng/mL and 56.4 ng/mL
MRT0-∞ [1, 2]: 4.65 h and 4.73 h and 4.67 h and 4.60 h and 5.35 h
t1/2 [1, 2]: 2.20 h and 3.50 h and 2.83 h and 3.06 h and 3.10 h
effect on length of time that the mice stopped swimming vs blank control (Male ICR mice; 3 mg/kg gavage, two successive weeks): did not shorten
Duration without Movement within the Last 4 min of the Whole 6 min (Male ICR mice; mice, gavage once a day for 14 days, 3 mg/kg, n = 10, x ± s): 199.6 ± 26.1 s
